Laboratory results reported in the supplement of paper PMC10627819.

Key:
Test in all cases: fitness (endpoint OD595 vs no drug) (fraction); higher = more growth
[1] = tested on: S. aureus DSM 20231
How it was run: (§1)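 Cultures at OD595 0.01 were dispensed into 384-well plates in TSB, LB Lennox or CY and incubated at 37 °C. Every 30 min for 14 h, OD595 was read and corrected by the first reading. Fitness is the optical density at entry into stationary phase relative to the robust mean of no-drug control wells, capped at 1.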

[2] = tested on: B. subtilis 168
How it was run: as §1

[3] = tested on: S. aureus Newman
How it was run: as §1

N[C@@H]1CONC1=O [Cycloserine D] + CN(N=O)C(=O)N[C@@H](C=O)[C@@H](O)[C@H](O)[C@H](O)CO [Streptozotocin]
fitness
Conditions	first compound 0.125 µg/mL	first compound 0.25 µg/mL	first compound 0.375 µg/mL	first compound 0.5 µg/mL	first compound 0.75 µg/mL	first compound 1.5 µg/mL
[1], partner 0.15 µg/mL	–	–	0.822	–	0.823	0.788
[1], partner 0.3 µg/mL	–	–	0.867	–	0.846	0.806
[1], partner 0.6 µg/mL	–	–	0.609	–	0.649	0.655
[2], partner 0.15 µg/mL	0.991	0.979	–	0.975	–	–
[2], partner 0.3 µg/mL	0.963	0.98	–	0.931	–	–
[2], partner 0.6 µg/mL	0.984	0.988	–	0.958	–	–
[3], partner 0.15 µg/mL	–	–	0.833	–	0.762	0.741
[3], partner 0.3 µg/mL	–	–	0.665	–	0.674	0.674
[3], partner 0.6 µg/mL	–	–	0.607	–	0.512	0.584

N[C@@H]1CONC1=O [Cycloserine D] + CN[C@@H]1[C@H](O)[C@H](NC)[C@H]2O[C@@]3(O)C(=O)C[C@@H](C)O[C@H]3O[C@@H]2[C@H]1O [Spectinomycin]
fitness
Conditions	first compound 0.125 µg/mL	first compound 0.25 µg/mL	first compound 0.375 µg/mL	first compound 0.5 µg/mL	first compound 0.75 µg/mL	first compound 1.5 µg/mL
[1], partner 4 µg/mL	–	–	0.977	–	0.971	0.969
[1], partner 8 µg/mL	–	–	0.944	–	0.981	0.932
[1], partner 16 µg/mL	–	–	0.842	–	0.877	0.882
[2], partner 2 µg/mL	≥ 1	0.985	–	0.992	–	–
[2], partner 4 µg/mL	0.947	0.934	–	0.957	–	–
[2], partner 8 µg/mL	0.906	0.924	–	0.879	–	–
[3], partner 4 µg/mL	–	–	0.96	–	0.924	0.908
[3], partner 8 µg/mL	–	–	≥ 1	–	0.94	0.917
[3], partner 16 µg/mL	–	–	0.941	–	0.894	0.875

fitness, one replicate
Conditions	first compound 0.375 µg/mL	first compound 0.75 µg/mL	first compound 1.5 µg/mL
[1], partner 32 µg/mL	0.726	0.786	0.736
[1], partner 64 µg/mL	0.0858	0.0864	0.0563
[3], partner 32 µg/mL	0.575	0.596	0.501
[3], partner 64 µg/mL	0.0802	0.0265	0.0316

N[C@@H]1CONC1=O [Cycloserine D] + CN[C@H](CC(C)C)C(=O)N[C@H]1C(=O)N[C@@H](CC(N)=O)C(=O)N[C@H]2C(=O)N[C@H]3C(=O)N[C@H](C(=O)N[C@H](C(=O)O)c4cc(O)cc(O)c4-c4cc3ccc4O)[C@H](O)c3ccc(c(Cl)c3)Oc3cc2cc(c3O[C@@H]2O[C@H](CO)[C@@H](O)[C@H](O)[C@H]2O[C@H]2C[C@](C)(N)[C@H](O)[C@H](C)O2)Oc2ccc(cc2Cl)[C@H]1O [Vancomycin]
fitness
Conditions	first compound 0.375 µg/mL	first compound 0.75 µg/mL	first compound 1.5 µg/mL
[1], partner 0.1875 µg/mL	≥ 1	0.973	≥ 1
[1], partner 0.375 µg/mL	≥ 1	≥ 1	0.957
[1], partner 0.75 µg/mL	≥ 1	≥ 1	≥ 1
[3], partner 0.1875 µg/mL	≥ 1	0.995	0.983
[3], partner 0.375 µg/mL	≥ 1	≥ 1	≥ 1
[3], partner 0.75 µg/mL	≥ 1	0.975	0.967

N[C@@H]1CONC1=O [Cycloserine D] + CO/N=C(\C(=O)N[C@@H]1C(=O)N2C(C(=O)[O-])=C(C[N+]3(C)CCCC3)CS[C@H]12)c1csc(N)n1 [Cefepime]
fitness
Conditions	first compound 0.375 µg/mL	first compound 0.75 µg/mL	first compound 1.5 µg/mL
[1], partner 0.125 µg/mL	0.907	0.936	0.99
[1], partner 0.25 µg/mL	0.92	0.97	0.952
[1], partner 0.5 µg/mL	0.853	0.884	0.862
[3], partner 0.125 µg/mL	0.894	0.925	0.89
[3], partner 0.25 µg/mL	0.808	0.854	0.852
[3], partner 0.5 µg/mL	0.782	0.801	0.779
